Publication PMC5980259, “GI‐530159, a novel, selective, mechanosensitive two‐pore‐domain potassium (K2P) channel opener, reduces rat dorsal root ganglion neuron excitability” (British Journal of Pharmacology, 2017)

Tests used:
Assay type in all cases: cell-based
[1] = biological target: Kv7.3 (Homo sapiens, UniProt O43525); assay: Rb+ efflux assay, Kv7.3
[2] = biological target: T1, THIK1 (K2P13.1) (Homo sapiens, UniProt Q9HB14); assay: Whole-cell patch clamp, THIK1 channels; conditions: 1 μM; n = 7
T1 construct: expressed in transfected cells; host or cells: tsA-201, transient, pcDNA3.1 vector
T1 sequence (Q9HB14 whole entry): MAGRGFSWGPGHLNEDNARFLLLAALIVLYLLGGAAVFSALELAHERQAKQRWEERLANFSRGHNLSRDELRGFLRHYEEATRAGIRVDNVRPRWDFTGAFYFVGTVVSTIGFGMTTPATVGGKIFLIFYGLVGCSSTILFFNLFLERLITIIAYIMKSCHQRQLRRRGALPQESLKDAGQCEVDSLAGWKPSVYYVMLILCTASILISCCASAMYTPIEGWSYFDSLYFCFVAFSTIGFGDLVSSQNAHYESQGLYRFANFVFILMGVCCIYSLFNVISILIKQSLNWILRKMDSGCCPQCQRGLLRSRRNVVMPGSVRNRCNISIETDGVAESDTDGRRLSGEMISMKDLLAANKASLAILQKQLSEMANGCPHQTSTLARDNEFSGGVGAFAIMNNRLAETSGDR
Protocol: (§1) Recordings of hTREK1, hTREK1∆N, hTREK2, hTRAAK and […] currents from transiently transfected tsA‐201 cells were performed using methods as described in Veale and Mathie (2016). Briefly, the pcDNA3.1 vector was cloned with the gene of interest, and these vectors and a similar vector containing GFP were incorporated into the tsA201 cells (0.5 μg per well) using the calcium phosphate method. The cells were incubated for 6–12 h at 37°C in […] and 5% carbon dioxide. Cells were then washed using a PBS solution and used for experiments after 24 h.
(§2) Currents were recorded using whole‐cell patch‐clamp using an Axopatch 1D amplifier. Cells were placed in a recording chamber filled with an external medium composed of 145 mM, NaCl, 2.5 mM KCl, 3 mM MgCl2, 1 mM CaCl2 and 10 mM HEPES (pH to 7.4, using NaOH). The internal medium used in the glass pipette comprised 150 mM KCl, 3 mM MgCl2, 5 mM (or 0.1 mM) EGTA and 10 mM HEPES (pH to 7.4, using KOH). GI‐530159 was applied by bath perfusion. Currents were recorded and analysed using pCLAMP 10.2 software Microsoft Excel. The voltage protocol used for recording current through K2P channels was as previously described (Veale and Mathie, 2016). For analysis, we measured the current difference between the −80 and −40 mV steps.

[3] = biological target: TASK3 (K2P9.1) (Homo sapiens, UniProt Q9NPC2); assay: Activated current, TASK3 channels; conditions: 1 μM; n = 5
Sequence of TASK3 (K2P9.1) (Q9NPC2 whole entry, species assumed): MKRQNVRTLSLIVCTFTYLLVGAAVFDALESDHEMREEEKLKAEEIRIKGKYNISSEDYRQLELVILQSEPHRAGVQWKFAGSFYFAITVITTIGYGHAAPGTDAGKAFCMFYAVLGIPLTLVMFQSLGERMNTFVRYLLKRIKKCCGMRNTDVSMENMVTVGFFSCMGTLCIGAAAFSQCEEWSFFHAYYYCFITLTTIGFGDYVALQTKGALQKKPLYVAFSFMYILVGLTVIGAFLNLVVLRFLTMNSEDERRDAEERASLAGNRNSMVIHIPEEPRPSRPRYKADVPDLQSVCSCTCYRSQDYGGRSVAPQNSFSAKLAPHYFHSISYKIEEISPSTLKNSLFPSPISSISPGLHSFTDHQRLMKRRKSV

[4] = biological target: T2, hTREK1∆N (Homo sapiens, UniProt O95069); assay: Whole-cell patch clamp, transiently transfected tsA-201 cells, TREK1ΔN; conditions: 1 μM, n = 5
T2 construct: expressed in transfected cells; host or cells: tsA-201, transient, pcDNA3.1 vector
T2 sequence (O95069 57-426 limits assumed): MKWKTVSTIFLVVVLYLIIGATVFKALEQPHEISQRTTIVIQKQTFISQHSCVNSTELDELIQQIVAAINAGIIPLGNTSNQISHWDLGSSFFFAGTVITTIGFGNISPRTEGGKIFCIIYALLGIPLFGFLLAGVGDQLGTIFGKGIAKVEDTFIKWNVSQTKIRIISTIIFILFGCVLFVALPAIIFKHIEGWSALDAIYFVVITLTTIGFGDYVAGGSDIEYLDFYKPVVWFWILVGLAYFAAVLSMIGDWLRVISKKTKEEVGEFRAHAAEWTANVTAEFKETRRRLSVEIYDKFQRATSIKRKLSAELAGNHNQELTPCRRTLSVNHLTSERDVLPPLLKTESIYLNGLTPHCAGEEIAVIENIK
Protocol: as §1, §2

[5] = biological target: NaV1.2 (Homo sapiens, UniProt Q99250); assay: Sodium channel selectivity, NaV1.2; conditions: read-out: EC50 against NaV1.2
Sequence of NaV1.2 (Q99250 whole entry): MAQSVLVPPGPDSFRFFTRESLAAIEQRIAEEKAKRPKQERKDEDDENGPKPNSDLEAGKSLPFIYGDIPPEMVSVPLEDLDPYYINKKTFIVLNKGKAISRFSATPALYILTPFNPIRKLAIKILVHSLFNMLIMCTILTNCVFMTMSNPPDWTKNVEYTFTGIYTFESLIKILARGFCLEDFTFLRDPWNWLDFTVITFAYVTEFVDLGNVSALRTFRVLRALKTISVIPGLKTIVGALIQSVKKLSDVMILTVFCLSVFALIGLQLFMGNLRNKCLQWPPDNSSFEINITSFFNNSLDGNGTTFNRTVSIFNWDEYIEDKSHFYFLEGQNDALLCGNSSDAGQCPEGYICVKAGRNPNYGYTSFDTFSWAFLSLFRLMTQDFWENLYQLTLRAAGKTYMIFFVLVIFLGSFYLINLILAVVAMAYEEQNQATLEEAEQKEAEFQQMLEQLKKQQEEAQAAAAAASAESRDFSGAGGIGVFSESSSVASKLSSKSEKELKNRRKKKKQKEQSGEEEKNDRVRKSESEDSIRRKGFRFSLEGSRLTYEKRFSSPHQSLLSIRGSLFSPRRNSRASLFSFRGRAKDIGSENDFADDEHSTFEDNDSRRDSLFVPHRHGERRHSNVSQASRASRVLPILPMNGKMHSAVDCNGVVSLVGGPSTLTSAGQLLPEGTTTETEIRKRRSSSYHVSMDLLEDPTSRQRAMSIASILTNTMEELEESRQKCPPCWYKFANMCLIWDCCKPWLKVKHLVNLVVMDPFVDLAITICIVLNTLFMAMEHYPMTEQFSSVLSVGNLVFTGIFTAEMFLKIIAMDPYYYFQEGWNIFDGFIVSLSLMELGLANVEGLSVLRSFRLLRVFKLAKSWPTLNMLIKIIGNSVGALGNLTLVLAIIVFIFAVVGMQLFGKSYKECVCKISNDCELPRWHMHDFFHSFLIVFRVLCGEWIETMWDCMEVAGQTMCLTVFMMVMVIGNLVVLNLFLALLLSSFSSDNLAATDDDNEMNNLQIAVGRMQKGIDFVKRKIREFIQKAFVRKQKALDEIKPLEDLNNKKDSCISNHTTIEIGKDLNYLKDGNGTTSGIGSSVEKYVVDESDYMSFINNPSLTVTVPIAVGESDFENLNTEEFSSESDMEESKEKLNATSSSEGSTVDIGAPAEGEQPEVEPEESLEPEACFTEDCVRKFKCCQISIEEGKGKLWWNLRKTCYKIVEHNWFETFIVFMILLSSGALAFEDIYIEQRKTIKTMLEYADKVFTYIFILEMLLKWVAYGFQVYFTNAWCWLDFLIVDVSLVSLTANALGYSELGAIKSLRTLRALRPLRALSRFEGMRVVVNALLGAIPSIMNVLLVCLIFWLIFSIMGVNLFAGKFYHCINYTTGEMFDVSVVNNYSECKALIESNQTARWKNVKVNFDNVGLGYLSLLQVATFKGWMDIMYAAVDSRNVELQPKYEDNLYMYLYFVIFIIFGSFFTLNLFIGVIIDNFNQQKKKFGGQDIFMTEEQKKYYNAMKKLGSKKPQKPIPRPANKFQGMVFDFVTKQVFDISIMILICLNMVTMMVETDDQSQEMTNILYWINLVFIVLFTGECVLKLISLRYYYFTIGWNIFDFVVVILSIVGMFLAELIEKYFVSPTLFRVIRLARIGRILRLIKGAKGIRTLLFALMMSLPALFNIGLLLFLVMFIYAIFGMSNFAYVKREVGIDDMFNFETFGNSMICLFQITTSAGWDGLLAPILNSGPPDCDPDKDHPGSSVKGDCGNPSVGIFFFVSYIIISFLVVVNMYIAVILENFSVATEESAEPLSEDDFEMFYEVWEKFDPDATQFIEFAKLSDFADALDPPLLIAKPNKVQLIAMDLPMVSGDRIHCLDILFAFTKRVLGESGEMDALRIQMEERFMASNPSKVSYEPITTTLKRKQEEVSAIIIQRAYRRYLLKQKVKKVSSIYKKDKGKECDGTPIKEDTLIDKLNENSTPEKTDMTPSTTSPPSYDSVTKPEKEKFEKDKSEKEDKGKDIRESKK

[6] = biological target: T3, hTREK2 (Homo sapiens, UniProt P57789); assay: Whole-cell patch clamp, transiently transfected tsA-201 cells, TREK2; conditions: 1 μM, n = 6
T3 construct: expressed in transfected cells; host or cells: tsA-201, transient, pcDNA3.1 vector
T3 sequence (P57789 whole entry): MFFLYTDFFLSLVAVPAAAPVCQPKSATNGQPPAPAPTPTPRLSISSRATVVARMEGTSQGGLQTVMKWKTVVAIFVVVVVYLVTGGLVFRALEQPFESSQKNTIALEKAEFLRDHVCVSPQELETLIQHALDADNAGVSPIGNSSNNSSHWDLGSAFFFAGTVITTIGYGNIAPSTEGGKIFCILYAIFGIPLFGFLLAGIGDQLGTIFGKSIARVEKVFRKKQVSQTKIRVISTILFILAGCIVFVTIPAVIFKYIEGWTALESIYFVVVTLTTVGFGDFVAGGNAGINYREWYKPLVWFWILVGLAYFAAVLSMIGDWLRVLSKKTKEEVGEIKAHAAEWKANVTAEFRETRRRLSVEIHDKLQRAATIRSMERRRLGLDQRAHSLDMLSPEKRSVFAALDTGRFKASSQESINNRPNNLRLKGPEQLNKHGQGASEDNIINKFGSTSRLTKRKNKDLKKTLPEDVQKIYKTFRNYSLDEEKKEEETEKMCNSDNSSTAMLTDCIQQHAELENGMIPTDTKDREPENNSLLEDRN
Protocol: as §1, §2

[7] = biological target: T4, hTRAAK (Homo sapiens, UniProt Q9NYG8); assay: Whole-cell patch clamp, transiently transfected tsA-201 cells, TRAAK
T4 construct: expressed in transfected cells; host or cells: tsA-201, transient, pcDNA3.1 vector
T4 sequence (Q9NYG8 1-393): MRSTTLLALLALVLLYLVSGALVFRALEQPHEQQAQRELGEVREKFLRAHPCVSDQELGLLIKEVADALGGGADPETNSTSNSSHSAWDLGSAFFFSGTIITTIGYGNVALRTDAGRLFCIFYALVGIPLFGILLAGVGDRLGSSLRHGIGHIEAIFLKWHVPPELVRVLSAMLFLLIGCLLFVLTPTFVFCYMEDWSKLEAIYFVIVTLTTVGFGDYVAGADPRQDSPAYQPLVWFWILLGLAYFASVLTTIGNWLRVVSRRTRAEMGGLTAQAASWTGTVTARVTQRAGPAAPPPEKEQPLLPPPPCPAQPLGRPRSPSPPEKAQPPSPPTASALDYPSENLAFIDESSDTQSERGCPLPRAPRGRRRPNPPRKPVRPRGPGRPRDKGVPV
Protocol: as §1, §2

SMILES: Nc1ccc(Oc2ccc(C(c3ccc(Oc4ccc(N)cc4)cc3)(C(F)(F)F)C(F)(F)F)cc2)cc1 [GI‐530159, 4,4′‐(hexafluoroisopropylidene)bis(p‐phenyleneoxy)dianiline]
- activator effect on Kv7.3 [1]: no activator effects
- effect on THIK1 (K2P13.1) current [2]: 0 ± 3%
- activated current, TASK3 channels [3]: 0.02 ± 0.005 nA
- enhancement of TREK1ΔN current [4]: 377 ± 57%
- EC50 [5]: > 100 µM
- enhancement of TREK2 current [6]: 42 ± 6%
- enhancement of TRAAK current ([7]; 1 μM, tsA-201, n = 7): 2 ± 10%
- effect on TRAAK channels ([7]; 10 μM): no detectable effect
